Results: patent publication US20250049823A1, “MITOCHONDRIAL ATP INHIBITORS TARGETING THE GAMMA SUBUNIT PREVENT METASTASIS” (LUNELLA BIOTECH, INC., priority 2021, published 2025)

How the values were obtained:
[1] = test system: MDA-MB-231 cells; assay: 3D anchorage-independent growth (mammosphere formation) assay; type: cell-based, human; settings: for Mammosphere formation inhibition compared to Bedaquiline (FIG. 12): 0.5 μM to 10 μM, all concentrations tested; for Mammosphere formation inhibition at the higher concentrations (FIG. 12): higher concentrations of 0.5 μM to 10 μM range
Experimental: One-way ANOVA, Dunnett's multiple comparisons test, **p<0.005, ***p<0.0005.
3D Anchorage Independent Growth Assay: This assay is also referred to as the mammosphere formation assay. A single-cell suspension was prepared using enzymatic, and manual disaggregation (25-g needle). Then, cells were plated at a density of 500 cells/cm^2 in mammosphere medium (DMEM-F12+1× B-27 Plus Supplement+20 ng/ml EGF+Pen/Strep) under non-adherent conditions, in culture dishes pre-coated with (2-hydroxyethylmethacrylate) (poly-HEMA, Sigma Aldrich Inc.), called “mammosphere plates.” Cells were grown for 5 days and maintained in a humidified incubator at 37° C. After 5 days of culture, 3D-mammospheres >50 μm were counted using an eye piece (“graticule”), and the percentage of cells plated which formed spheres was calculated and is referred to as percent mammosphere formation, and was normalized to one (1=100% MFE). 3D mammosphere formation efficiency (MFE) was analyzed in both the ATP-low and ATP-high sub-populations of cells. All 3D mammosphere experiments were performed in triplicate, at least 3 times independently.

[2] = test system: p21; assay: Western blot analysis of p21 protein expression; settings: 0.1, 1 and 10 μM, 120 hours
[3] = test system: chicken embryos; assay: CAM assay: embryo toxicity; type: in vivo; settings: all concentrations tested, daily for 8 days
Experimental: (§1) Next, to test in vivo activity, the well-established CAM assay was used with MDA-MB-231 cells, to measure the effect of Bedaquiline effects on tumor growth, spontaneous metastasis and embryo toxicity. FIG. 11A illustrates the timeline for the CAM assay. An inoculum of 1×10^6 MDA-MB-231 cells was added onto the CAM of each egg (day E9) and then eggs were randomized into groups. On day E10, tumors were detectable and they were then treated daily for 8 days with vehicle alone (1% DMSO in PBS) or Bedaquiline. After 8 days of drug administration, on day E18, all tumors were weighed, and the lower CAM was collected to evaluate the number of metastatic cells, as analyzed by qPCR with specific primers for Human Alu sequences. Before each drug administration, treatment tolerability was evaluated by scoring the number of live and dead chicken embryos.
(§2) Tumor Growth, Metastasis and Embryo Toxicity Assays: Xenograft assays were carried out by INOVOTION (Société: 811310127), La Tronche-France. […] For tumor growth assays, at least 14 tumor samples were collected and analysed per group (N≥14). […] Genomic DNA was extracted from the CAM (commercial kit) and analyzed by qPCR with specific primers for Human Alu sequences. […] Before each administration, the treatment tolerability was evaluated by scoring the number of live and dead embryos.

[4] = test system: MDA-MB-231 cells; assay: Cell cycle analysis by FACS; type: cell-based, human
Experimental: There is a 2-fold reduction of MDA-MB-231 cells in S-phase and a concomitant 2-fold increase in the sub-G0-G1 population, after 120 hours of treatment. Two-way ANOVA, Sidak's multiple comparisons test, ns=not significant, ***p<0.0005. FIGS. 9C and 9D show representative FACS tracings for the control and for cells treated with Bedaquiline, respectively.
FIGS. 10A-10C show cell cycle populations for MDA-MB-231 cells treated with Bedaquiline (1 and 10 μM) or vehicle alone, after 48, 72 and 120 hours, respectively. Cell cycle analysis was performed using FACS. […] However, at 72 and 120 hours, a decrease in the S-phase population and a concomitant increase in the sub-G0-G1 population can be seen in FIGS. 10B and 10C. Two-way ANOVA, Sidak's multiple comparisons test, ns=not significant, *p<0.01, **p<0.001, ***p<0.0005.
Cell Cycle Analysis by FACS: Cell-cycle analysis was performed on the ATP-high and ATP-low cell sub-populations, by FACS analysis using the Attune NxT Flow Cytometer. Briefly, after trypsinization, the re-suspended cells were incubated with propidium iodide, as per the manufacturer's recommendations (Merck Millipore, Inc.). At least 25,000 events were analyzed per condition. Gated cells were categorized into cell-cycle stages.

[5] = test system: MDA-MB-231 cells; assay: ATP assay using BioTracker ATP-Red 1 (mitochondrial ATP levels); type: cell-based; settings: Homo sapiens, 120 hours of treatment, read-out: Maximal inhibition of mitochondrial ATP production
Experimental: FIG. 7 compares the fold-change of BioTracker ATP-Red (signal mean) between the control and MDA-MB-231 cells treated with Bedaquiline. […] The data in FIG. 7 based on two-way ANOVA, Sidak's multiple comparisons test, *p<0.05, **p<0.005, ***p<0.0005, ****p<0.0001.
ATP assay using BioTracker ATP-Red 1: Cells were stained with BioTracker ATP-Red 1 after various treatments. After 30 minutes of incubation, the cells were washed twice with DPBS, collected and dissociated into a single-cell suspension with a 40 μm cell strainer. The cells were analyzed using the Attune NxT Flow Cytometer. Means of the signal (at 570 nm) were compared.

[6] = test system: MDA-MB-231 cells; assay: 2D monolayer growth; type: cell-based, human; settings: 10 μM, time-dependent
Experimental: (§3) FIGS. 8A and 8B show monolayer growth of MDA-MB-231 and MCF10A cells, respectively, treated with 10 μM Bedaquiline over time. […] Unpaired t-test *p<0.05, **p<0.005.
(§4) Reagents and Model Cell Lines: It should be apparent that other cell lines may be used without departing from the present approach. BioTracker ATP-Red 1 (#SCT045) was obtained commercially from Merck-Millipore, Inc. The triple-negative human breast cancer cell line, MDA-MB-231, was obtained from the American Type Culture Collection (ATCC). MCF10A cells, a non-tumorigenic human breast epithelial cell line, were also obtained from ATCC. MDA-MB-231 cells were cultured in DMEM (High Glucose) supplemented with 10% Fetal Bovine Serum (FBS, Sigma Aldrich), 2 mM Glutamax (Gibco, Life Technologies, Waltham, MA, USA), and 1% penicillin/streptomycin (Gibco, Life Technologies). The MCF10A cell line was maintained in a mammary epithelial cell growth medium (MEGM; Lonza, Basel, Switzerland) supplemented with 0.4% Bovine pituitary extract (BPE), 0.1% insulin, 0.1% hEGF, 0.1% Hydrocortisone, 0.1% GA-1000, and 100 ng/ml of cholera toxin. All cell lines were cultured at 37° C. in 5% CO2 in a humidified atmosphere.

[7] = test system: PARP; assay: Western blot analysis of PARP protein expression; settings: 0.1, 1 and 10 μM, 120 hours
[8] = test system: MDA-MB-231 cells; assay: Live cell/dead cell analysis by FACS; type: cell-based, human; settings: 1 and 10 μM
Experimental: FIGS. 10D-10F show the results of live cell/dead cell analysis. MDA-MB-231 cells were treated with Bedaquiline (1 and 10 μM) or vehicle alone, for 48, 72 and 120 hours, and then subjected to live/dead analysis by FACS. […] However, at 72 and 120 hours (FIGS. 10E and 10F), a decrease in the live cell population and an increase in the dead cell population can be seen. […] Two-way ANOVA, Sidak's multiple comparisons test, ns=not significant, *p<0.01, **p<0.001, ***p<0.0005.

[9] = test system: MDA-MB-231 cells; assay: CAM assay: tumor growth and spontaneous metastasis; type: in vivo, chicken; settings: daily for 8 days
Experimental: as §1, §2

[10] = molecular target: ATP5F1C (Homo sapiens, UniProt P36542); settings: 0.1, 1 and 10 μM; 24, 48, 72 and 120 hours; relative to vehicle (DMSO)
[11] = test system: MDA-MB-231 cells; assay: Cell migration assay (Transwells); type: cell-based; settings: Homo sapiens, 32 hours then 16 hours in Transwells
Experimental: MDA-MB-231 cells were cultured in presence of Bedaquiline (10 μM) for 32 hours and moved to the Transwells for 16 hours in presence of Bedaquiline (10 μM). Unpaired t-test, **p<0.005.
Cell Migration Assays: Briefly, 3.5×10^4 cells in 0.5 ml of serum-free DMEM with 0.1% BSA were added to the wells of 8-μm pore, non-coated membrane modified Boyden chambers (Transwells). The lower chambers contained 10% fetal bovine serum in DMEM to serve as a chemo-attractant. Cells were incubated at 37° C. and allowed to migrate throughout the course of 16 hours. Noninvasive cells were removed from the upper surface of the membrane by scrubbing with cotton swabs. Chambers were stained in 0.5% crystal violet diluted in 100% methanol for 30-60 min, rinsed in water and examined under a bright-field microscope. Values for invasion and migration were obtained by counting five fields per membrane (20× objective) and represent the average of three independent experiments.

[12] = test system: MCF10A cells; assay: 2D monolayer growth, non-tumorigenic control cells; type: cell-based; settings: 10 μM, normal control human mammary epithelial cell line
Experimental: as §3, §4

For `COc1nc2ccc(CCCCOC(=O)CCCCCCCCCCC[P+](c3ccccc3)(c3ccccc3)c3ccccc3)cc2cc1[C@@H](c1ccccc1)[C@@](O)(CCN(C)C)c1cccc2ccccc12.[Br-]` [structure [2B]], the “Mammosphere formation inhibition compared to Bedaquiline (FIG. 12)” value [1] was “more potent than unconjugated Bedaquiline” and the “Mammosphere formation inhibition at the higher concentrations (FIG. 12)” value [1] was “exceptional mammosphere formation inhibition”.

With `COc1nc2ccc(CCCCOC(=O)CCCCC[P+](c3ccccc3)(c3ccccc3)c3ccccc3)cc2cc1[C@@H](c1ccccc1)[C@@](O)(CCN(C)C)c1cccc2ccccc12.[Cl-]` [structure [3B], [6-[4-[3-[(1R,2S)-4-(dimethylamino)-2-hydroxy-2-(1-naphthyl)-1-phenyl-butyl]-2-methoxy-6-quinolyl]butoxy]-6-oxo-hexyl]-triphenyl-phosphonium; chloride] the “Mammosphere formation inhibition compared to Bedaquiline (FIG. 12)” value [1] was “more potent than unconjugated Bedaquiline” and the “Mammosphere formation inhibition at the higher concentrations (FIG. 12)” value [1] was “exceptional mammosphere formation inhibition”.

`COc1nc2ccc(Br)cc2cc1[C@@H](c1ccccc1)[C@@](O)(CCN(C)C)c1cccc2ccccc12` [Bedaquiline, (1R,2S)-1-(6-bromo-2-methoxyquinolin-3-yl)-4-(dimethylamino)-2-naphthalen-1-yl-1-phenylbutan-2-ol] was tested, and the p21 protein expression [2] was “decreased in a concentration-dependent manner”, the “Toxicity for chick embryos (egg survival)” value [3] was “not toxic” and the S-phase population ([4]; 1 and 10 μM, 72 and 120 hours) was “decrease”. The sub-G0-G1 population ([4]; 1 and 10 μM, 72 and 120 hours) was “increase”, the Cell cycle populations ([4]; 1 and 10 μM, 48 hours) was “No effects were detectable” and the “Increase in the sub-G0-G1 population” value ([4]; after 120 hours of treatment) was 2 fold. The “Reduction of cells in S-phase” value ([4]; after 120 hours of treatment) was 2 fold, the inhibition at 10 µM [5] was 75% and the 2D monolayer growth [6] was “effectively inhibits 2D growth”. The inhibition at 10 µM ([1]; Homo sapiens, MDA-MB-231, 10 μM) was about 65%, the PARP protein expression [7] was “decreased in a concentration-dependent manner” and the “Apoptotic cell population (early or late)” value ([8]; 72 and 120 hours) was “no increase”. The Dead cell population ([8]; 72 and 120 hours) was “increase”, the Live cell population ([8]; 72 and 120 hours) was “decrease” and the Live/dead cell populations ([8]; 48 hours) was “No effects were detectable”. The “Inhibition of spontaneous metastasis” value ([9]; 120 μM treatment, qPCR Human Alu in lower CAM) was 84%, the “Effect on tumor growth (average tumor weight)” value ([9]; day E18) was “no statistically significant effect” and the ATP5F1C protein expression [10] was “down-regulated”. The inhibition at 10 µM [11] was about 50% and the 2D monolayer growth [12] was “No effect was observed”.
